Test system: hERG channel-expressing cells
Description: Specifically, changes in membrane potential may be measured by performing the following operations in a manner as described below. The hERG channel-expressing cell of the invention is cultured for a specific period of time by the appropriate method as described above and suspended in a buffer suitable for measurement. […] Preferably, phosphate buffered saline (pH 7.4) is used. It is preferred that the cell suspension be prepared to give a concentration of 0.2×10^5 cells/ml to 1.0×10^6 cells/ml. Subsequently, the cell suspension is plated on plates (such as Biocoat Poly-D-Lysine 384-Well Black/Clear Plate; BECKTON DICKINSON) and cultured further Cells may be plated at 500 cells/well to 25000 cells/well. Preferably, cells are cultured for about two days after the plating. […] About one hour after the addition of Component A, changes in membrane potential may be measured with FLIPR (Molecular Devices) or FDSS6000 (Hamamatsu Photonics). […] Measurement may be performed at room temperature. hERG inhibitory activity may be calculated from the change in fluorescence intensity caused by the addition of the test compound. […]
About one hour after the addition of Component A, changes in membrane potential were measured with FDSS6000. […] Measurement was performed at room temperature. hERG inhibitory activity was calculated from the fluorescence intensity change for 5 min after the addition of the test substance. […]

SMILES: [Cl-].[K+] [KCl]
- changes in membrane potential (fluorescence intensity change): the membrane potential was depolarized

Reference: patent publication US7935526B2, “hERG channel-expressing cell” (priority 2003, dated 2011)
